Results as given in PMC7180456, “Multitarget Anticancer Agents Based on Histone Deacetylase and Protein Kinase CK2 Inhibitors” (Molecules, 2020).
Where two headings read alike, the source gives them in different places.

What was measured:
Jurkat T-leukemia cells = experiment: Cytotoxicity, trypan blue exclusion assay, 24 h; details: Homo sapiens
Protocol: (§3) Walter Berger, Institute of Cancer Research, Vienna Medical University. Human embryonal kidney cells of HEK293 line were obtained from cell culture collection of R.E. Kavetsky Institute of Experimental Pathology, Oncology and Radiobiology, National Academy of Sciences of Ukraine (Kyiv, Ukraine).
(§4) Cells were seeded (5 × 10^5/mL for leukemia cells and 1 × 10^5/mL for carcinoma cells) into 24-well tissue culture plates (Greiner Bio-one, Frickenhausen, Germany) and were permitted to adhere and grow for 24 h before the experiment. Short-term (24 h) cytotoxic effect of antitumor drugs was studied under the Evolution 300 Trino microscope (Delta Optical, Nowe Osiny, Poland) after cell staining with trypan blue dye (0.1%).
(§5) Final concentration of DMSO in cell culture was 0.5% or less.
(§6) All experiments were performed in triplicate and repeated three times. Statistical analysis of data was conducted in GraphPad Prism 7.0 Software (GraphPad Software, Inc.) using Student’s t test. Statistical significance was set at P ≤ 0.05. Evaluation of LC50 values of each compound was done by built-in functions of GraphPad Prism (non-linear regression, curve fit, [Inhibitor] vs. normalized response - Variable slope).

human recombinant CK2α = target: T1, human recombinant CK2α (Homo sapiens, UniProt P68400); experiment: CK2 inhibition, radiometric method with peptide substrate […]; assay type: biochemical; details: radiometric method, 20 µM ATP; read-out: Inhibitory activity IC50 on CK2
T1 construct: GST; made in house; host or cells: bacteria
T1 sequence (P68400 whole entry): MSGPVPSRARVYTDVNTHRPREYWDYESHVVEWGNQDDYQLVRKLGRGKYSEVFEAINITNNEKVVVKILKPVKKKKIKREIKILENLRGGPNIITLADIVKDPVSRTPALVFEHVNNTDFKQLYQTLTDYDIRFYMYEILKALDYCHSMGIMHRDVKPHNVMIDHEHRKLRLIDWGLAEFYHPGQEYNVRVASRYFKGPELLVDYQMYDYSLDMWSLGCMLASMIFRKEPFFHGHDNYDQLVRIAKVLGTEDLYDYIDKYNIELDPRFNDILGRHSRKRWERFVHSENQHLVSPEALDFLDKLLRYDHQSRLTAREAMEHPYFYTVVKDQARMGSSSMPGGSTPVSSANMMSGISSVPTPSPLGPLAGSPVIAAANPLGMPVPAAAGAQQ
Protocol: The activity towards human recombinant HDAC1 was tested using a fluorometric method. CK2 inhibitory activity was determined by a radiometric method, using a short peptide ([…]) as a substrate.
Recombinant human protein kinase GST-CK2 was produced in bacteria and purified as described elsewhere. […] The reaction buffer contained 20 µM [γ-32P] ATP (specific radioactivity 300–1000 cpm/pmol), 15 mM Mg^2+, 20 mM Tris–HCl pH 7.5, and 6 mM 2-mercaptoethanol. 10 µL of the assay mixture was spotted onto a square (1 cm/1 cm) of Whatman P81 paper and allowed to dry. Each square was immersed in cold 0.5% phosphoric acid, and washed three times during 10 min, allowed to dry and transferred into a vessel containing Opti-Phase liquid (scintillation solution) and radioactivity was quantified using a scintillation counter (MicroBeta, Perkin Elmer) by Cerenkov counting. All experiments were performed in triplicate. IC50 values were calculated using GraphPad Prism (version 4.0) software.

HDAC6 = target: T2, HDAC6 (Homo sapiens, UniProt Q9UBN7); experiment: HDAC6 inhibition, fluorometric method (Enzo Fluorometric Drug Discovery Assay Kit); assay type: biochemical; details: read-out: Inhibitory activity IC50 on HDAC6
T2 construct: purchased Enzo Life Sciences, Inc
T2 sequence (Q9UBN7 1-1215): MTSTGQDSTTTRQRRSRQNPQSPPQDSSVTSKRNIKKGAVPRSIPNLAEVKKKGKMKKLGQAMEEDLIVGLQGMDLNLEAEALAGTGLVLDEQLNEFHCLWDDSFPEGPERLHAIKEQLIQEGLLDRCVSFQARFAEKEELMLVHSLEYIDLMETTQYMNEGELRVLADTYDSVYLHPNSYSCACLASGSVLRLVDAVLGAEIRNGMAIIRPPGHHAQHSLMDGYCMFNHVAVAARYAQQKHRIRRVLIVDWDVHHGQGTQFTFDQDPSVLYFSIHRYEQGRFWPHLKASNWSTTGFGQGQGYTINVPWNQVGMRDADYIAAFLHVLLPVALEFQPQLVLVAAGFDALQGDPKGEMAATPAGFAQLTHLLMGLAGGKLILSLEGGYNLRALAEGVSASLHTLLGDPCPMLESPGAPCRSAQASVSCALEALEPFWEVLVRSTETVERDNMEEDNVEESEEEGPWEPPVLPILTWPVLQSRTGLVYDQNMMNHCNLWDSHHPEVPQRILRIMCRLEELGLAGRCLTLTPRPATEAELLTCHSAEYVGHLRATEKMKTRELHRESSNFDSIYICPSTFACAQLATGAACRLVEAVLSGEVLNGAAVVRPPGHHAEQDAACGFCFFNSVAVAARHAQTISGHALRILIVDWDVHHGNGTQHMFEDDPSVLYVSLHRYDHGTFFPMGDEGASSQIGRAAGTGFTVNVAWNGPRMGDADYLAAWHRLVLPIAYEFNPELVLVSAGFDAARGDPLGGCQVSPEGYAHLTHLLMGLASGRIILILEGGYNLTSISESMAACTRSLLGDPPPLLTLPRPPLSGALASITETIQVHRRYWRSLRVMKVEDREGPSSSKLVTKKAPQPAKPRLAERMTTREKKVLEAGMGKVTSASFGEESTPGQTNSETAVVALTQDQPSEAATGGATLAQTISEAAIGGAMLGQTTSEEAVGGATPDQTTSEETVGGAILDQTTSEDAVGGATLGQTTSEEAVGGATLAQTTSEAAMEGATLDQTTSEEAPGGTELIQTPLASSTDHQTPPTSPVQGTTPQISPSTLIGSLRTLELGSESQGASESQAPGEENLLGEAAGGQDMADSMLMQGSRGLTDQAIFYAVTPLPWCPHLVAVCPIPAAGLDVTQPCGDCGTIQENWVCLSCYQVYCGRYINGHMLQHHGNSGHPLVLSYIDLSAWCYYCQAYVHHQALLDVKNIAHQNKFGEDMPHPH
Protocol: For this reason, we analyzed the activity of 15 and 19, together with other compounds from the alkyl and triazole series in HDAC6, tested using a fluorometric method (Table 1).
15 µL of HDAC1 (0.4 µg/well) or HDAC6 (0.5 µg/well) were incubated at 37 °C for 30 minutes with 10 µL of inhibitor diluted in 5% DMSO and 25 µL of fluorogenic substrate (0.05 µL/well of 5 mM solution). Reactions were stopped with the developer and trichostatin A, diluted in buffer without BSA, and the plate was incubated at 30 °C for 45 min, followed by measuring the fluorescence (Ex. 360 nm, Em. 450 nm, Fluoroskan, Thermo Scientific).

[1] = tested on: breast adenocarcinoma cells of MCF-7 line; experiment: Cytotoxicity, trypan blue exclusion assay, 24 h; details: Homo sapiens
Protocol: as §3, §4, §5, §6

[2] = tested on: leukemia cells of HL-60 line; experiment: Cytotoxicity, trypan blue exclusion assay, 24 h; assay type: cell-based; details: Homo sapiens
Excerpt: (§1) Taking into consideration the high abundance of CK2 kinase in leukemia and lymphomas, the ability of selected CK2-HDAC dual inhibitors to circumvent MDR was investigated in human leukemia cells of HL-60 line and its doxorubicin-resistant (HL-60/adr, MRP-1 overexpression) and vincristine-resistant (HL-60/vinc, P-gp overexpression) sublines.
(§2) Statistical significance was set at P ≤ 0.05.

[3] = tested on: HL-60/vinc (vincristine-resistant, P-gp overexpression); experiment: Cytotoxicity, trypan blue exclusion assay, 24 h; assay type: cell-based; details: Homo sapiens, HL60/vinc
Excerpt: as §1, §2

[4] = tested on: HL-60/adr (doxorubicin-resistant, MRP-1 overexpression); experiment: Cytotoxicity, trypan blue exclusion assay, 24 h; assay type: cell-based; details: Homo sapiens, HL60/ADR
Excerpt: as §1, §2

[5] = Cytotoxicity, trypan blue exclusion assay, 24 h (pseudonormal cells); details: human, HEK293 embryonic kidney cells (pseudonormal)
Protocol: as §3, §4, §5, §6

[6] = 24 h, read-out: LC50 Values of Compounds for Cell Line, Jurkat
[7] = read-out: LC50 values of compounds for cell line, Jurkat
[8] = MCF7, 24 h, read-out: LC50 Values of Compounds for Cell Line, MCF-7
[9] = Table 2, trypan blue, 24 h, M ± SD, read-out: LC50 Values of Compounds for Cell Line, HL-60
[10] = supplement Table 4S, M±SD, read-out: LC50 values of compounds for cell line, HL-60
[11] = Table 2, trypan blue, 24 h, M ± SD, read-out: LC50 Values of Compounds for Cell Line, HL-60/vinc
[12] = supplement Table 4S, M±SD, read-out: LC50 values of compounds for cell line, HL-60/vinc
[13] = Table 2, trypan blue, 24 h, M ± SD, read-out: LC50 Values of Compounds for Cell Line, HL-60/adr
[14] = supplement Table 4S, M±SD, read-out: LC50 values of compounds for cell line, HL-60/adr
[15] = LC50 Values of Compounds for Cell Line, HEK293, Table 2, trypan blue, 24 h, M ± SD
[16] = LC50 values of compounds for cell line, HEK293, supplement Table 4S, M±SD

| SMILES | CC50 (Jurkat T-leukemia cells; [6]) [µM] | CC50 (Jurkat T-leukemia cells; [7]) [µM] | IC50 (human recombinant CK2α) [µM] | IC50 (HDAC6) [µM] | CC50 [1, 8] [µM] | CC50 [2, 9] [µM] | CC50 [2, 10] [µM] | CC50 [3, 11] [µM] | CC50 [3, 12] [µM] | CC50 [4, 13] [µM] | CC50 [4, 14] [µM] | CC50 at 24 h [5, 15] [µM] | CC50 at 24 h [5, 16] [µM] | CC50 ([1]; MCF7, read-out: LC50 values of compounds for cell line, MCF-7) [µM] |
| --- | --- | --- | --- | --- | --- | --- | --- | --- | --- | --- | --- | --- | --- | --- |
| O=C(NO)c1ccc(Cn2nc3c(Br)c(Br)c(Br)c(Br)c3n2)cc1 [Compound 15a, N-Hydroxy-4-((tetrabromo-2H-benzo[d][1,2,3]triazol-2-yl)methyl)benzamide] | 43.6 ± 16.7 | > 30 | 15 | 11 | 13.7 ± 2.67 | 34.4 ± 7.89 | > 30 | 36.6 ± 4.74 | > 30 | 32.4 ± 3.44 | > 30 | 33.7 ± 7.52 | > 30 | – |
| CN(C)c1nc2c(Br)c(Br)c(Br)c(Br)c2n1CCc1cn(CCC(=O)NO)nn1 [Compound 7c, N-Hydroxy-3-(4-(2-(4,5,6,7-tetrabromo-2-(dimethylamino)-1H-benzo[d]imidazol-1-yl)ethyl)-1H-1,2,3-triazol-1-yl)propanamide] | 16.5 ± 2.33 | 10.7 | 12.5 | 30.7 | 27.8 ± 6.06 | 24 ± 8.66 | 7.67 | 49.5 ± 9.47 | 17.6 | 18.6 ± 2.09 | 16.2 | 42.7 ± 8.65 | 23.3 | 15.7 |
| CN(C)c1nc2c(Br)c(Br)c(Br)c(Br)c2n1Cc1ccc(C(=O)NO)cc1 [Compound 19, N-Hydroxy-4-((4,5,6,7-tetrabromo-2-(dimethylamino)-1H-benzo[d]imidazol-1-yl)methyl)benzamide] | 24.9 ± 3.8 | 21.8 | 7.15 | 20.6 | 13.6 ± 0.78 | – | > 30 | 21.7 ± 3.39 | 26.6 | 32.3 ± 5.32 | > 30 | 33.4 ± 11.8 | 24.5 | – |
